Experimental data published in patent publication US11833146B2, “Dementia therapeutic agent combining pyrazoloquinoline derivative and donepezil” (Eisai R&D Management Co., Ltd., priority 2017, dated 2023).

System: rats with scopolamine-induced cognitive impairment
Test: Novel object recognition test using rats with scopolamine-induced cognitive impairment
Type: in vivo, rat (male Long Evans)
Settings: for effect on the percentage of exploration of the novel object (in words): vs disease control group, p<0.05; for percentage of exploration of the novel object in T2: scopolamine 0.7 mg/kg s.c., mean±standard error
From the text: [Test Example 1] Novel Object Recognition Test Using Rats with Scopolamine-Induced Cognitive Impairment
Acetylcholine nervous system disorder has been reported in Alzheimer's disease and Lewy body dementia (Whitehouse et al., Science, 1982, vol. 215, p. 1237, Shimada et al., Neurology, vol. 73, p. 273, 2009, Tiraboschi et al., Neurology 54 (2000) 407-411, Peny et. al., NeuroReport, vol. 5, pp. 747-749 (1994)), and scopolamine-administered animals are utilizable as an animal model for Alzheimer's disease and Lewy body dementia.
Scopolamine is a muscarine receptor inhibitor which blocks acetylcholine nervous system transmission.
6-week-old male Long Evans rats (Institute for Animal Reproduction) were subjected to the test. A habituation process to the experimental procedure was carried out once per day for 2 days prior to the test. In the habituation process, a vehicle was administered to the rats, and then the rats were placed in an empty test apparatus (40 cm×30 cm×45 cm height) and allowed to explore for 3 minutes, and after then placed in a waiting chamber (13 cm×30 cm×45 cm height) for about 1 minute, they were returned to the empty test apparatus again and left for 5 minutes.
An acquisition trial (T1) was carried out on the day of the test. Compound (I) was orally administered 2 hours before T1. Donepezil hydrochloride was orally administered 1 hour before T1. Scopolamine (Wako Pure Chemical Industries, Ltd.) was subcutaneously administered 30 minutes before T1 at a dose of 0.7 mg/kg. In T1, the rats were habituated to the empty test apparatus for 3 minutes and then placed in the waiting chamber. After setting two identical objects in the test apparatus, the rats were returned into the test apparatus again and allowed to freely explore the two identical objects for 5 minutes. The rats were then returned into their rearing cages. After 2 hours, a retention trial (T2) was carried out. The rats were placed in the empty test apparatus for 3 minutes for habituation, and were then transferred into the waiting chamber. After setting an object used in T1 (“familiar” object) and an object not used in T1 (“novel” object) in the test apparatus, the rats were again returned into the test apparatus and allowed to freely explore these objects for 3 minutes. The objects were wiped with a wet wipe impregnated with ethanol after each experiment so as to leave no trace of odor. The behaviors of the rats during T1 and T2 were recorded by a digital video camera, and the total exploration time for each object was manually measured using a stopwatch. Exploratory behavior was defined as the behavior in which the rat brings its nose within 2 cm of the object and directs its nose toward the object.
In the novel object recognition test, the percentage of exploration of the novel object in T2 is considered to be an index for amnesia, reflecting discrimination between the familiar object and the novel object. The percentage of exploration of the novel object was calculated by the following formula. The percentage of exploration of the novel object (%)=N/(N+F)×100 F: time spent in exploring the familiar object N: time spent in exploring the novel object
Rats whose total time spent in exploring the objects during T1 or T2 was 10 seconds or less or rats whose percentage of the time spent in exploring either of the objects during T1 was not less than 70% or not more than 30% of the total exploration time were excluded from the data analysis.
The results were expressed as mean±standard error. The difference between the normal control group untreated with scopolamine and the disease control group treated with scopolamine was analyzed by an unpaired t-test (significant difference: *). The difference between the disease control group and the single drug-treated group was analyzed by Dunnett-type multiple comparison test (significant difference: #).

Row | SMILES | effect on the percentage of exploration of the novel object (in words) (0.03 mg/kg) | effect on the percentage of exploration of the novel object (in words) (0.3 mg/kg) | percentage of exploration of the novel object in T2 (Table 3, Donepezil 0.03 mg/kg oral 1 h before T1) [%] | percentage of exploration of the novel object in T2 (Table 4, Donepezil 0.1 mg/kg oral 1 h before T1) [%] | percentage of exploration of the novel object in T2 (Table 4, Donepezil 0.3 mg/kg oral 1 h before T1, # significant vs disease control) | percentage of exploration of the novel object in T2 (Table 5, Donepezil 0.03 mg/kg alone, oral) [%] | effect on the percentage of exploration of the novel object (in words) (1 mg/kg) | effect on the percentage of exploration of the novel object (in words) (3.3 mg/kg) | percentage of exploration of the novel object in T2 (Table 5, Compound (I) 1 mg/kg alone, oral) [%]
1 | COc1cc2c(cc1OC)C(=O)C(CC1CCN(Cc3ccccc3)CC1)C2 (stereo not drawn) [Donepezil, donepezil] | did not exhibit a significant effect | significant ameliorative effect | 62.7 ± 3.6 | 66.2 ± 4.0 | 70.4 ± 4.8# % | 57.8 ± 4.0 | – | – | –
2 | COc1ncc(C)c(-c2ccc3c(c2)[nH]c(=O)c2cnn([C@H]4CCOC4)c23)c1C [Compound (I), (S)-7-(2-methoxy-3,5-dimethylpyridin-4-yl)-1-(tetrahydrofuran-3-yl)-1H-pyrazolo[4,3-c]quinoline-4(5H)-one] | – | – | – | – | – | – | did not exhibit a significant effect | significant ameliorative effect | 64.9 ± 2.2
